This is an account of results in patent US20190071796A1, “PROCESS AND APPARATUS FOR MAKING ALIGNED OR TWISTED ELECTROSPUN FIBERS AND DEVICES” (The Johns Hopkins University, priority 2016, published 2019).

The data set can be described thus: In vitro release of sunitinib from PLGA nanofiber-based mesh. The conditions noted are these: 10% sunitinib/PLGA (w/w) (FIG. 14). The format is physicochemical.

For the molecule `CCN(CC)CCNC(=O)c1c(C)[nH]c(/C=C2\C(=O)Nc3ccc(F)cc32)c1C` [sunitinib, Sunitinib malate], the “duration of in vitro sustained release” value was 30 days.
